Laboratory results as given in article PMC4389562, “Antigiardial activity of novel triazolyl-quinolone-based chalcone derivatives: when oxygen makes the difference” (Frontiers in Microbiology, 2015).
Like-named read-outs stand apart in the source and are kept apart here.

Tests used:
Caco-2 cells = assay: Counter-screen on Caco-2 cells, ATP level by luminescence (ATPlite), 48 h incubation; assay type: cell-based, human; conditions: atmospheric O2, 5% CO2, 48 h, 37 °C
Method: Trophozoites of G. intestinalis strain WB clone C6 (ATCC No. 50803TM) were cultured axenically at 37^∘C in 25-cm^2 flasks containing Diamond’s TYI-S-33 medium supplemented with 10% bovine calf serum, 1 mg/mL bovine bile, 0.1 g/L streptomycin and 100 U/mL penicillin. […] Human epithelial colorectal adenocarcinoma (Caco-2) cells were grown in 25-cm^2 flasks in EMEM supplemented with 1% (v/v) non-essential amino acids, 2 mM glutamine, 5% (v/v) fetal bovine serum, 0.1 g/L streptomycin, and 100 U/mL penicillin.
Cells were detached with 0.5% trypsin-EDTA and seeded in sterile 96-well white clear-bottom plates at the same density of Giardia trophozoites and at increasing concentration of the compound to be tested, as described above. The assays were carried out exactly as reported for the Giardia trophozoites, except that the plates were incubated (still at 37^∘C) at atmospheric O2 level, 5% CO2, and 95% humidity. Each drug concentration was tested in at least seven replicates. MTZ was used as an internal […] control in the assay. Following 48 h incubation with each compound, according to the manufacturer instructions, 100 μL of the ATPlite^TM luminescence assay system (Perkin Elmer) was added to each well for one-step lysis and ATP level detection by luminescence.
Luminometric data were calibrated using ATP standard curves and normalized to the ATP level measured in control DMSO-treated cells (taken as 100%). The measured ATP level percentage was plotted as a function of the compound concentration and the half-maximal inhibitory concentration (IC50) was obtained by fitting the resulting titration profile to the Hill equation ([Goutelle et al., 2008]). The selectivity index (SI) of the compounds was then calculated as the ratio between the IC50 value measured on human cells over the value determined on Giardia trophozoites (SI = IC50,Caco-2/IC50,Giardia).
Selectivity of the newly synthesized compounds toward Giardia was assessed by running a counter-screen on human epithelial Caco-2 cells. […] This allowed us to calculate the compounds SI, defined as the ratio between the IC50 value measured on human cells over the value determined on Giardia trophozoites.

[1] = tested on: Giardia intestinalis trophozoites; assay: Drug susceptibility of Giardia trophozoites, ATP level by luminescence (BacTiter-Glo), 48 h incubation, anaerobic or microaerobic; assay type: cell-based, Giardia intestinalis strain WB clone C6; conditions: for IC50: 48 h, 37 °C, ATP level; for selectivity ratio at 48 h: human (Caco-2 cells) versus Giardia intestinalis, Caco-2, SI = IC50,Caco-2/IC50,Giardia
Method: Trophozoites of G. intestinalis strain WB clone C6 (ATCC No. 50803TM) were cultured axenically at 37^∘C in 25-cm^2 flasks containing Diamond's TYI-S-33 medium supplemented with 10% bovine calf serum, 1 mg/mL bovine bile, 0.1 g/L streptomycin and 100 U/mL penicillin. Typically, 50 ml medium was inoculated with 25 × 10^6 cells and after 2 days cells were harvested by chilling the flasks on ice for 30 min for drug susceptibility assays. […] The assays were performed following the procedure described in [Bahadur et al. (2014)], using sterile 96-well white clear-bottom plates. […] Each drug concentration was tested in at least six replicates. MTZ was used as an internal positive control in the assay. The microtiter plates were then incubated at 37^∘C under anaerobic or microaerobic conditions, ensured by the Anaerocult® A or the Anaerocult® […] (Merck), respectively. […] Following 48 h incubation with the compound to be tested, 100 μL of the BacTiter-Glo^TM Microbial Cell Viability Assay System reagent (Promega) was added to each well for one-step lysis and ATP level detection. Plates were then incubated at room temperature for 15 min and ATP levels finally detected by luminescence on a plate reader (Wallac Victor3 1420 Multilabel Counter, PerkinElmer). Luminometric data were calibrated using ATP standard curves and normalized to the ATP level measured in control DMSO-treated cells (taken as 100%). The measured ATP level percentage was plotted as a function of the compound concentration and the half-maximal inhibitory concentration (IC50) was obtained by fitting the resulting titration profile to the Hill equation ([Goutelle et al., 2008]). The selectivity index (SI) of the compounds was then calculated as the ratio between the IC50 value measured on human cells over the value determined on Giardia trophozoites (SI = IC50,Caco-2/IC50,Giardia). The antigiardial activity of the novel compounds 23-67 was tested under both anaerobic and microaerobic conditions. According to ([Dunn et al., 2010]; [Bahadur et al., 2014]), susceptibility of Giardia trophozoites to increasing concentrations of each compound was assessed based on ATP level determination by luminescence. Dose-response curves for each compound were obtained after 48 h-incubation and compared to the data collected under identical conditions with MTZ, the drug of choice for treatment of giardiasis. […] Typical dose-response curves are shown in Figure 2, whereas the IC50 values measured for the synthetic compounds and MTZ under anaerobic and microaerobic conditions are reported in Table 1. […] Under anaerobic conditions, 18 out of the 45 synthetic compounds were as effective as MTZ or more under identical conditions (see Table 1).

[2] = Giardia duodenalis, anaerobic conditions (Anaerocult A), read-out: Giardia (anaerobiosis) IC50
[3] = Giardia duodenalis, microaerobic conditions (~5% O2, Anaerocult C), read-out: Giardia (microaerobiosis) IC50
[4] = Giardia under anaerobiosis, read-out: Selectivity (IC50,Caco/IC50,Giardia) Anaerobiosis
[5] = Giardia under microaerobiosis, read-out: Selectivity (IC50,Caco/IC50,Giardia) Microaerobiosis

Compound | IC50 (Caco-2 cells; Homo sapiens, Caco-2, 48 h) [µM] | melting point [°C] | IC50 [1, 2] [µM] | IC50 [1, 3] [µM] | selectivity ratio at 48 h [1, 4] | selectivity ratio at 48 h [1, 5] | fold more efficient than MTZ against Giardia ([1]; anaerobic conditions, relative to MTZ) | IC50 (Caco-2 cells) [µM] | IC50 ([1]; anaerobic conditions (Anaerocult A), read-out: Giardia (anaerobiosis) IC50) [µM]
COc1ccc(C(=O)/C=C/c2cc3ccccc3n(Cc3cn(-c4ccccc4)nn3)c2=O)cc1 [Compound 67] | ≥ 100 | 215 to 217 | 5.9 | 0.8 | ≥ 16 | ≥ 125 |  |  | 
Cc1ccc(C(=O)/C=C/c2cc3ccccc3n(Cc3cn(-c4ccc(Cl)cc4)nn3)c2=O)cc1 [Compound 55] | 20 | 217 to 219 | 8.7 | 1.1 | 2.3 | 18.2 |  |  | 
COc1cccc(C(=O)/C=C/c2cc3ccccc3n(Cc3cn(-c4ccc(Cl)cc4)nn3)c2=O)c1 [Compound 57] | 14.7 | 215 to 217 | 6.6 | 1.1 | 2.2 | 11.3 |  |  | 
Cc1ccc(-n2cc(Cn3c(=O)c(/C=C/C(=O)c4ccc(F)cc4)cc4ccccc43)nn2)cc1 [Compound 34] | 9.4 | 215 to 217 | 3.8 | 1.2 | 2.5 | 7.8 |  |  | 
COc1ccc(-n2cc(Cn3c(=O)c(/C=C/C(=O)c4ccccc4F)cc4ccccc43)nn2)cc1 [Compound 23] | ≥ 100 | 215 to 217 | ≥ 100 | ≥ 20 |  |  |  |  | 
COc1ccc(C(=O)/C=C/c2cc3ccccc3n(Cc3cn(-c4ccc(OC)cc4)nn3)c2=O)cc1 [Compound 31] | ≥ 80 | 190 to 192 | ≥ 50 | 2 |  | ≥ 40 |  |  | 
COc1ccc(-n2cc(Cn3c(=O)c(/C=C/C(=O)c4ccc(Cl)cc4)cc4ccccc43)nn2)cc1 [Compound 26] | ≥ 20 | 230 to 232 | 5 | 2.6 | ≥ 4 | ≥ 7 |  |  | 
Cc1ccc(C(=O)/C=C/c2cc3ccccc3n(Cc3cn(-c4ccccc4)nn3)c2=O)cc1 [Compound 64] | 17.8 | 216 to 218 | 2.8 | 0.5 | 6.4 | 35.6 |  |  | 
O=C(/C=C/c1cc2ccccc2n(Cc2cn(-c3ccccc3)nn2)c1=O)c1ccccc1F [Compound 59] | 11.2 | 172 to 174 | 1.9 | 0.4 | 5.9 | 28 |  |  | 
COc1cccc(C(=O)/C=C/c2cc3ccccc3n(Cc3cn(-c4ccc(F)cc4)nn3)c2=O)c1 [Compound 48] | ≥ 60 | 220 to 222 | 7 | 1.6 | ≥ 8 | ≥ 37 |  |  | 
O=C(/C=C/c1cc2ccccc2n(Cc2cn(-c3ccc(Cl)cc3)nn2)c1=O)c1ccccc1F [Compound 50] | ≥ 50 | 242 to 244 | 4.7 | 0.9 | ≥ 10 | ≥ 55 |  |  | 
O=C(/C=C/c1cc2ccccc2n(Cc2cn(-c3ccc(F)cc3)nn2)c1=O)c1ccc(Br)cc1 [Compound 45] | 16.7 | 238 to 240 | 1.1 | 0.5 | 15.2 | 33.4 | three to fourfold |  | 
COc1ccccc1C(=O)/C=C/c1cc2ccccc2n(Cc2cn(-c3ccccc3)nn2)c1=O [Compound 65] | ≥ 40 | 210 to 212 | 2.2 to 3.2 | 0.4 |  |  |  | ≥ 50 | 1.6
Cc1ccc(C(=O)/C=C/c2cc3ccccc3n(Cc3cn(-c4ccc(C)cc4)nn3)c2=O)cc1 [Compound 37] | ≥ 50 | 202 to 204 | 6.3 | 1.6 | ≥ 7 | ≥ 31 |  |  | 
COc1ccc(-n2cc(Cn3c(=O)c(/C=C/C(=O)c4ccc(F)cc4)cc4ccccc43)nn2)cc1 [Compound 25] | ≥ 20 | 211 to 213 | 3.9 | 1.3 | ≥ 5 | ≥ 15 |  |  | 
O=C(/C=C/c1cc2ccccc2n(Cc2cn(-c3ccccc3)nn2)c1=O)c1ccc(Cl)cc1 [Compound 62] | 5.9 | 216 to 218 | 2.1 | 0.7 | 2.8 | 8.4 |  |  | 
COc1cccc(C(=O)/C=C/c2cc3ccccc3n(Cc3cn(-c4ccccc4)nn3)c2=O)c1 [Compound 66] | ≥ 40 | 224 to 226 | 3.2 | 1.6 | > 15 | > 30 |  | ≥ 50 | 
